The nature of data set [1]: Half life in rat liver microsomes. Type of data set: ADME, Microsome.
A short description of data set [2]: (§1) Oral bioavailability in rat. In kind it is ADME, organism-based. The conditions noted are these: in vivo.
A short description of data set [3]: Half life in dog liver microsomes. In kind it is ADME, Canis lupus familiaris, Microsome. In general terms: Microsomes from liver hold many membrane-bound enzymes, among them those of drug oxidation.
Data set [4] can be described thus: Half life in human liver microsomes. In kind it is ADME, Microsome.
Data set [5] is described as follows: Half life in mouse liver microsomes. In kind it is ADME, Microsome.
Data set [6] addresses T1, 5-hydroxytryptamine receptor 6 (Homo sapiens, UniProt P50406). Description: Displacement of [3H]LSD from human recombinant 5HT6 receptor. For orientation: In a radioligand displacement assay an active substance lowers the binding of a labelled ligand.
The target in data set [7] is T1, 5-hydroxytryptamine receptor 6. Nature of the data set: Antagonist activity at human 5HT6 receptor expressed in human astrocytoma cells assessed as inhibition of cAMP production. In kind it is functional, cell-based. On the technique in general: Cyclic AMP is a second messenger, typically raised through Gs and lowered through Gi signalling.
For data set [8], the target named is 5-hydroxytryptamine receptor 6 (Rattus norvegicus, UniProt P31388). Nature of the data set: Displacement of [3H]LSD from rat recombinant 5HT6 receptor.
The subject of data set [9] is Rattus norvegicus. Nature of the data set: AUC in po dosed rat. In kind it is ADME, organism-based, Plasma. To be noted: in vivo.
The subject of data set [10] is Rattus norvegicus. Described as §1. Type of data set: ADME, organism-based. To be noted: in vivo.
Data set [11] deals with 5-hydroxytryptamine receptor 5A (Homo sapiens) (UniProt P47898). Description: Inhibition of human 5HT5A at 10 uM.
Data set [12] deals with 5-hydroxytryptamine receptor 1B (Rattus norvegicus) (UniProt P28564). Description: Inhibition of rat […] at 10 uM.
The target in data set [13] is 5-hydroxytryptamine receptor 2C (Homo sapiens) (UniProt P28335). Description: Inhibition of human 5HT2C at 10 uM.
Data set [14] deals with Rattus norvegicus. Description: Antiamnesic activity in ip dosed rat assessed as decrease in ratio of investigation duration of familiar juvenile rat administered 120 mins prior to test by social recognition test. Type of data set: functional, organism-based.
Data set [15] addresses 5-hydroxytryptamine receptor 2A (Homo sapiens, UniProt P28223). Nature of the data set: Inhibition of human 5HT2A at 10 uM.
The target of data set [16] is Sodium-dependent noradrenaline transporter (Homo sapiens, UniProt P23975). The conditions noted are these: 10 uM.
Description: Inhibition of NA transporter at 10 uM
In data set [17] the target is 5-hydroxytryptamine receptor 1A (Homo sapiens) (UniProt P08908). Nature of the data set: Inhibition of human 5HT1A at 10 uM.
In data set [18] the target is Muscarinic acetylcholine receptor M1 (Homo sapiens) (UniProt P11229). The conditions noted are these: 10 uM.
Description: Inhibition of M1 receptor at 10 uM
In data set [19] the target is 5-hydroxytryptamine receptor 7 (Homo sapiens) (UniProt P34969). Description: Inhibition of human 5HT7 at 10 uM.
Data set [20] concerns the target Sodium-dependent dopamine transporter (Homo sapiens, UniProt Q01959). To be noted: 10 uM.
Description: Inhibition of DA transporter at 10 uM
For data set [21], the target named is 5-hydroxytryptamine receptor 3A (Homo sapiens) (UniProt P46098). Description: Inhibition of human 5HT3 at 10 uM.
Data set [22] has as its target 5-hydroxytryptamine receptor 2B (Homo sapiens, UniProt P41595). Nature of the data set: Inhibition of human 5HT2B at 10 uM.
The target in data set [23] is Muscarinic acetylcholine receptor M2 (Homo sapiens) (UniProt P08172). The conditions noted are these: 10 uM.
Description: Inhibition of M2 receptor at 10 uM
Data set [24] has as its target Muscarinic acetylcholine receptor M4 (Homo sapiens) (UniProt P08173). The conditions noted are these: 10 uM.
Description: Inhibition of M4 receptor at 10 uM
Data set [25] can be described thus: Ratio of drug uptake in brain to plasma in rat at 5 mg/kg, po. In kind it is ADME, organism-based. Also noted: dose 5 mg/kg, route oral. The conditions noted are these: read-out: BPR.
Data set [26] concerns Rattus norvegicus. Nature of the data set: Volume of distribution in rat at 1 mg/kg, iv. In kind it is ADME, organism-based. More on the design: dose 1 mg/kg, route intravenous. The conditions noted are these: in vivo.
The nature of data set [27]: Oral bioavailability in rat at 5 mg/kg at 24 hrs. Type of data set: ADME, organism-based. To be noted: in vivo.
Data set [28] deals with Rattus norvegicus. Nature of the data set: Half life in rat at 1 mg/kg, iv. Type of data set: ADME, organism-based. More on the design: dose 1 mg/kg, route intravenous. The conditions noted are these: in vivo.

T1 sequence (P50406 whole entry): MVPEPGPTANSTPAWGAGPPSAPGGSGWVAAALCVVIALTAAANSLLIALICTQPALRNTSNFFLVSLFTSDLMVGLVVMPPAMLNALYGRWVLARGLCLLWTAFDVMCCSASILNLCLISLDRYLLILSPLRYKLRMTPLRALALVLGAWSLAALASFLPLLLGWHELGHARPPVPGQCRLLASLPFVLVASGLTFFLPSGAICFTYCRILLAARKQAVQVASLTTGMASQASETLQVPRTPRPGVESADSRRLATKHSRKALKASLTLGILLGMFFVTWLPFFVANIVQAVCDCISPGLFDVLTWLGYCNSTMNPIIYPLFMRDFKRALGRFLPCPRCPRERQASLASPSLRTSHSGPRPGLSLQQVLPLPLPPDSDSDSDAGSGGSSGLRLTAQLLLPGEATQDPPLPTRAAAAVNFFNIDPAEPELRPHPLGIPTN
5-hydroxytryptamine receptor 6 (Rattus norvegicus, UniProt P31388), sequence (P31388 whole entry): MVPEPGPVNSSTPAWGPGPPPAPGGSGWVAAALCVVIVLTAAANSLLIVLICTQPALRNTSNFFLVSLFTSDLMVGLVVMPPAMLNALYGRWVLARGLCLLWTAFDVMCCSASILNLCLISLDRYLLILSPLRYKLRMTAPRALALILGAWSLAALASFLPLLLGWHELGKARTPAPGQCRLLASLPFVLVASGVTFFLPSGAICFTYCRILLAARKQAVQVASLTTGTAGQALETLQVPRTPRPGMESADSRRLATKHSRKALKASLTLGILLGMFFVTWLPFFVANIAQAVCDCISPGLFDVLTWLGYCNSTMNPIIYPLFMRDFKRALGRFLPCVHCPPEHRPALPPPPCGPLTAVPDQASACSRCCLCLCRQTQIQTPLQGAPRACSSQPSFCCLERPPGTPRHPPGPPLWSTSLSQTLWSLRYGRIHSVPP
5-hydroxytryptamine receptor 2A, sequence (P28223 whole entry): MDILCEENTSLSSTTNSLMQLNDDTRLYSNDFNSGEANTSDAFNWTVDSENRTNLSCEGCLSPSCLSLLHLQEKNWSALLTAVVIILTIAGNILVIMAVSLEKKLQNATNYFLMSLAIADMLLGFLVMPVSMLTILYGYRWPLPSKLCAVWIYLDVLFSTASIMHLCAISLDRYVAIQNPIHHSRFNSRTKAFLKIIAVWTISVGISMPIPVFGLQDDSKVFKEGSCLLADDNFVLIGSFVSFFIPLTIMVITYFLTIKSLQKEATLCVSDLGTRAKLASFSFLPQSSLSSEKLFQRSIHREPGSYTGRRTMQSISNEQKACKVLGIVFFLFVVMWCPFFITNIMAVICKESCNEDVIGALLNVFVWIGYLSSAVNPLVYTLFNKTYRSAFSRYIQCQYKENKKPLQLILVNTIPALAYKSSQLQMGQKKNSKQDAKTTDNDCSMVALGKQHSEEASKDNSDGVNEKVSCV
Muscarinic acetylcholine receptor M4 (Homo sapiens), sequence (P08173 whole entry): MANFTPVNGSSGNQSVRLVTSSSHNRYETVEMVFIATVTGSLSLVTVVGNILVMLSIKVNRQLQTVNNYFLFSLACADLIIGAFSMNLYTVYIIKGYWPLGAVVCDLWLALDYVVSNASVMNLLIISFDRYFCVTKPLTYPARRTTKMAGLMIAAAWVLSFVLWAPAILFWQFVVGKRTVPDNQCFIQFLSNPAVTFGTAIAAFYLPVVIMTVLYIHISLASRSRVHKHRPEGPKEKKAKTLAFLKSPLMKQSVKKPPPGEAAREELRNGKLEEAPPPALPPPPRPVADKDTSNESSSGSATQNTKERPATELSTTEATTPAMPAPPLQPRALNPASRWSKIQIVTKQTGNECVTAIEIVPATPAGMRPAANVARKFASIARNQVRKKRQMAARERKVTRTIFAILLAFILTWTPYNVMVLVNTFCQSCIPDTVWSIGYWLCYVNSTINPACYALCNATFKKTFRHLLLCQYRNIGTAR
Muscarinic acetylcholine receptor M1 (Homo sapiens), sequence (P11229 whole entry): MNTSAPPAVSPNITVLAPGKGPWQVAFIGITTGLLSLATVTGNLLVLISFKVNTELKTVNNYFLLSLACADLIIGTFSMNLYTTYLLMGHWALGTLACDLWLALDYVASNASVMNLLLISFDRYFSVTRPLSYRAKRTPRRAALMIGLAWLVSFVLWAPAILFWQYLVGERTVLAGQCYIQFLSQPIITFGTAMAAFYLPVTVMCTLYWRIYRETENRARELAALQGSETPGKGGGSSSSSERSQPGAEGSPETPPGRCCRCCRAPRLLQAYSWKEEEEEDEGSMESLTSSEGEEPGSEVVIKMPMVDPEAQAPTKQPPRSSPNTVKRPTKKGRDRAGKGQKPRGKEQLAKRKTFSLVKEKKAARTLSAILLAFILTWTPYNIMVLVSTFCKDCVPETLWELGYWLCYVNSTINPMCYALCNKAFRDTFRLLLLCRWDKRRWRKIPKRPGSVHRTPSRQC
5-hydroxytryptamine receptor 2B, sequence (P41595 whole entry): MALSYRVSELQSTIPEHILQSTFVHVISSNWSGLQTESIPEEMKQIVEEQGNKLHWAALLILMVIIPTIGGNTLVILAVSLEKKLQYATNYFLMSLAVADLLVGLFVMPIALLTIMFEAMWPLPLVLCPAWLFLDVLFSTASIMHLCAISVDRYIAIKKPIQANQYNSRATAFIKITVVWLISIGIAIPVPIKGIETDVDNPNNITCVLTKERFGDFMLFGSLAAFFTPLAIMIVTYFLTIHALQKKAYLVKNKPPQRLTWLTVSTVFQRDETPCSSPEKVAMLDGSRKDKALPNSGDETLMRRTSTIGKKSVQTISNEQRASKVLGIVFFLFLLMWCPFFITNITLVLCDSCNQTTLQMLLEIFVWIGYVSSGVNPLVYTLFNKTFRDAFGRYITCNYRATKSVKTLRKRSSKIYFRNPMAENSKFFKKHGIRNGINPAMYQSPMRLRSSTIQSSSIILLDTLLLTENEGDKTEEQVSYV
Sodium-dependent dopamine transporter, sequence (Q01959 whole entry): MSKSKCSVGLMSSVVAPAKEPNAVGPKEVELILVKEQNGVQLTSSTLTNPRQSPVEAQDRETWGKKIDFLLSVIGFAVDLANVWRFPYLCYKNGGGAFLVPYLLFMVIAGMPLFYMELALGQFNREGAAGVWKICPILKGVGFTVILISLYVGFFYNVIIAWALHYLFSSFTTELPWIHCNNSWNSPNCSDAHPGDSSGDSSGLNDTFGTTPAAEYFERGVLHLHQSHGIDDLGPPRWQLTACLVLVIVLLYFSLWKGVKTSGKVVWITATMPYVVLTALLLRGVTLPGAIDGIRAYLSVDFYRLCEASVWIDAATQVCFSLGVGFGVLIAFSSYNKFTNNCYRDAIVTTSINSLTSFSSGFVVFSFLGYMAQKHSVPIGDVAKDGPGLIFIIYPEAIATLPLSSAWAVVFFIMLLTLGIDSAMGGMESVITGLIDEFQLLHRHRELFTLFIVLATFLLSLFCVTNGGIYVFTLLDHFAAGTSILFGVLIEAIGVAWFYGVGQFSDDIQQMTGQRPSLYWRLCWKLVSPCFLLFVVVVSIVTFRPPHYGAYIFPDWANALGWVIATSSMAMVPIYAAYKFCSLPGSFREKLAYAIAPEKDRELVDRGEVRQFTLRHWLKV
5-hydroxytryptamine receptor 5A (Homo sapiens), sequence (P47898 whole entry): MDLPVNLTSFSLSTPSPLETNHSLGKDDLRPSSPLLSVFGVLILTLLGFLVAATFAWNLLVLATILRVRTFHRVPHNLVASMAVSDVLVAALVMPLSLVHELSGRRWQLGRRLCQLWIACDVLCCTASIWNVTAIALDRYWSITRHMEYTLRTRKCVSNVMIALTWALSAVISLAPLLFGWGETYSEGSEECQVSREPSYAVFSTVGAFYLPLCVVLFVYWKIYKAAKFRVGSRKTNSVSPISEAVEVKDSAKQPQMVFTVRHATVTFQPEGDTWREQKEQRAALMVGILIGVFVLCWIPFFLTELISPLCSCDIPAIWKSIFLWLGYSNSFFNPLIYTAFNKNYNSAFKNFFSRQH
5-hydroxytryptamine receptor 2C (Homo sapiens), sequence (P28335 whole entry): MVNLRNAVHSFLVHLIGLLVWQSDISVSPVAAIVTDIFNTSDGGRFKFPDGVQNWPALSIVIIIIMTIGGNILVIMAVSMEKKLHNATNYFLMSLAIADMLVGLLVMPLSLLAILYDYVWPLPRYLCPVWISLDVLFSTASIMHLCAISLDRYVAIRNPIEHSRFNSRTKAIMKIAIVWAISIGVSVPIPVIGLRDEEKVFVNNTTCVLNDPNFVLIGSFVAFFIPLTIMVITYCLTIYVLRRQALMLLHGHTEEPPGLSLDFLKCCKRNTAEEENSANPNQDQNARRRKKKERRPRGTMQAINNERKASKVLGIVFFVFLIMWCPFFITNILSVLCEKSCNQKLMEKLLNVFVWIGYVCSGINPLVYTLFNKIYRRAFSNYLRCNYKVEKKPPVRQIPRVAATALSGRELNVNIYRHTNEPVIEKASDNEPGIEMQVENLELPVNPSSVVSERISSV
Muscarinic acetylcholine receptor M2 (Homo sapiens), sequence (P08172 whole entry): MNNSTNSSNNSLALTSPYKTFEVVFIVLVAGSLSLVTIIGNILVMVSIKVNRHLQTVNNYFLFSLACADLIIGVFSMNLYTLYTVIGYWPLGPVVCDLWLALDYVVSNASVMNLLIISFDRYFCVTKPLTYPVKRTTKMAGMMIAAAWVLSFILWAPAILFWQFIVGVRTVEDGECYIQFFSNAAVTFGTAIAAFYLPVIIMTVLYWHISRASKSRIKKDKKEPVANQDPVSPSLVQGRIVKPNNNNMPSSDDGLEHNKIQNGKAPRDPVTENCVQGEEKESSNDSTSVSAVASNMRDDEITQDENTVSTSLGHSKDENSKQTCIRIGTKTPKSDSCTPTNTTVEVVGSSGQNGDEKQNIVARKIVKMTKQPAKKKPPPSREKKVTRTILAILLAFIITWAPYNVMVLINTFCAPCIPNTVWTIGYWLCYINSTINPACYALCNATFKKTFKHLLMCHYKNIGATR

With `Cl.O=S(=O)(c1ccccc1)c1ccc2c3c(oc2c1)CNCC3`, the half-life is below 5 min in data set [1], 10 min in data set [3], above 40 min in [4] and below 5 min in data set [5]. For the same compound, in [2], the bioavailability came out at 7%. Also, the Ki in data set [6] stood at 2.9 nM.

Turning to `Cl.O=S(=O)(c1ccccc1)c1ccc2c(c1)O[C@H]1CNCC[C@@H]21` (racemic), the half-life in [1], in [3], in data set [4] and in data set [5] was above 40 min each time. The same compound displayed a bioavailability in [2] of 15%. Also, the Ki in data set [6] was determined as 83 nM.

On to `O=S(=O)(c1ccc2c(c1)O[C@H]1CNCC[C@@H]21)c1ccccc1F` (racemic), for which the IC50 in data set [7] was 179 nM. Further, the Ki came to 145 nM in [8] and 32 nM in data set [6].

As for `O=S(=O)(c1ccc2c(c1)O[C@H]1CNCC[C@@H]21)c1ccccc1Cl` (racemic), the IC50 in [7] was determined as 133 nM. Further, the figures for the Ki in [8] and in data set [6] were 206 nM and 38 nM, respectively.

Take `O=S(=O)(c1ccc2c(c1)O[C@H]1CNCC[C@@H]21)c1ccccc1-c1ccccc1` (racemic): the IC50 in [7] was found to be 135 nM. For the same compound, the Ki in data set [8] was 136 nM; in data set [6], 15 nM.

As for `O=S(=O)(c1cccc(F)c1)c1ccc2c(c1)O[C@H]1CNCC[C@@H]21` (racemic), in [7], the IC50 worked out at 33 nM. For the same compound, the Ki in data set [8] stood at 52 nM; in data set [6], 21 nM.

Take `O=S(=O)(c1cccc(Cl)c1)c1ccc2c(c1)O[C@H]1CNCC[C@@H]21` (racemic): the IC50 in data set [7] was found to be 27 nM. In addition, the results for the Ki in [8] and in [6] were 40 nM and 11 nM, respectively.

In the case of `Cc1cccc(S(=O)(=O)c2ccc3c(c2)O[C@H]2CNCC[C@@H]32)c1` (racemic), the IC50 in [7] worked out at 227 nM. Moreover, the Ki was 243 nM in data set [8] and 37 nM in data set [6].

For the compound `O=S(=O)(c1cccc(C(F)(F)F)c1)c1ccc2c(c1)O[C@H]1CNCC[C@@H]21` (racemic), in data set [7], the IC50 was 357 nM. The Ki in [6] was 48 nM.

With `COc1cccc(S(=O)(=O)c2ccc3c(c2)O[C@H]2CNCC[C@@H]32)c1` (racemic), the IC50 in data set [7] came to 281 nM. The Ki in [6] was found to be 85 nM.

Take `CC(C)Oc1cccc(S(=O)(=O)c2ccc3c(c2)O[C@H]2CNCC[C@@H]32)c1` (racemic): in data set [7], the IC50 is 306 nM. The figures for the Ki in [8] and in [6] were 156 nM and 23 nM, respectively.

`COCCOc1cccc(S(=O)(=O)c2ccc3c(c2)O[C@H]2CNCC[C@@H]32)c1` (racemic): the Ki in data set [6] was determined as 562 nM.

For the compound `COCCCOc1cccc(S(=O)(=O)c2ccc3c(c2)O[C@H]2CNCC[C@@H]32)c1` (racemic), the Ki in data set [6] stood at 203 nM.

As for `O=S(=O)(c1ccc(F)cc1)c1ccc2c(c1)O[C@H]1CNCC[C@@H]21` (racemic), the Ki in data set [6] was determined as 385 nM.

As for `Cc1ccc(S(=O)(=O)c2ccc3c(c2)O[C@H]2CNCC[C@@H]32)cc1` (racemic), the IC50 in [7] was 245 nM. For the same compound, the Ki was determined as 236 nM in data set [8] and 64 nM in data set [6].

As for `CC(C)Oc1cc(F)cc(S(=O)(=O)c2ccc3c(c2)O[C@H]2CNCC[C@@H]32)c1` (single isomer, unassigned; enantiomer 1), in data set [6], the Ki worked out at 49 nM.

`Cl.O=S(=O)(c1cccc(F)c1)c1ccc2c(c1)O[C@H]1CNCC[C@@H]21` (single isomer, unassigned; enantiomer 1) showed an AUC in data set [9] of 0 ng·h/mL. In [2], this compound returned a bioavailability below 1%. The Ki in data set [6] was found to be 11 nM.

`CC(C)Oc1cccc(S(=O)(=O)c2ccc3c(c2)O[C@H]2CNCC[C@@H]32)c1.Cl` (single isomer, unassigned; enantiomer 1): the AUC in [9] is 637 ng·h/mL. The same compound came in with a F in data set [10] of 9%. In addition, the Ki in [6] was found to be 17 nM.

For `O=S(=O)(c1cc(F)cc(F)c1)c1ccc2c(c1)O[C@H]1CNCC[C@@H]21` (single isomer, unassigned; enantiomer 1), the IC50 in data set [7] stood at 1360 nM. Moreover, the Ki turned out to be 2180 nM in data set [8] and 166 nM in data set [6].

Turning to `O=S(=O)(c1cc(F)cc(Cl)c1)c1ccc2c(c1)O[C@H]1CNCC[C@@H]21` (single isomer, unassigned; enantiomer 1), the IC50 in [7] stood at 790 nM. In addition, the Ki in data set [6] turned out to be 68 nM.

As to `O=S(=O)(c1ccc2c(c1)O[C@H]1CNCC[C@@H]21)c1cccc(Cl)c1Cl` (single isomer, unassigned; enantiomer 1), in data set [7], the IC50 stood at 40 nM. Also, the Ki in data set [6] worked out at 5 nM.

Consider `CC(C)Oc1cccc(S(=O)(=O)c2ccc3c(c2)O[C@H]2CNCC[C@@H]32)c1F` (single isomer, unassigned; enantiomer 1), for which the Ki in data set [6] is 56 nM.

With `COc1cc(OC(C)C)cc(S(=O)(=O)c2ccc3c(c2)O[C@H]2CNCC[C@@H]32)c1` (single isomer, unassigned; enantiomer 1), the inhibition was 6% in [11]; 16% in data set [12]; 71% in data set [13]; 83% in data set [15]; above 50% in data set [16]; 19% in [17]. Further, the inhibition in data set [18] is above 50%; in data set [19], 6%; in data set [20], above 50%; in data set [21] it was 25%; in data set [22], 62%; in [23], above 50%. The same compound displayed an inhibition in data set [24] above 50%. The Activity result in data set [14] is “Dose-dependent effect”.

On to `CC(C)Oc1cc(F)cc(S(=O)(=O)c2ccc3c(c2)O[C@H]2CNCC[C@@H]32)c1` (single isomer, unassigned; enantiomer 2), for which the Ki in [6] came to 65 nM.

For `Cl.O=S(=O)(c1cccc(F)c1)c1ccc2c(c1)O[C@H]1CNCC[C@@H]21` (single isomer, unassigned; enantiomer 2), the AUC in data set [9] is 434 ng·h/mL. In data set [10], this compound gave an F of 2%. Also, the Ki in [6] was 85 nM.

Take `CC(C)Oc1cccc(S(=O)(=O)c2ccc3c(c2)O[C@H]2CNCC[C@@H]32)c1.Cl` (single isomer, unassigned; enantiomer 2): the AUC in data set [9] came out at 310 ng·h/mL. In [10], this compound returned an F of 26%. For the same compound, the Ki in [6] was 31 nM.

`O=S(=O)(c1cc(F)cc(F)c1)c1ccc2c(c1)O[C@H]1CNCC[C@@H]21` (single isomer, unassigned; enantiomer 2): the IC50 in [7] is 96 nM. The Ki in data set [8] came out at 174 nM; in data set [6] it was 28 nM.

For `O=S(=O)(c1cc(F)cc(Cl)c1)c1ccc2c(c1)O[C@H]1CNCC[C@@H]21` (single isomer, unassigned; enantiomer 2), in data set [7], the IC50 stood at 63 nM. In data set [6], the Ki turned out to be 11 nM.

Take `O=S(=O)(c1ccc2c(c1)O[C@H]1CNCC[C@@H]21)c1cccc(Cl)c1Cl` (single isomer, unassigned; enantiomer 2): in [7], the IC50 turned out to be 6 nM. Moreover, the Ki in data set [6] was 2 nM.

On to `CC(C)Oc1cccc(S(=O)(=O)c2ccc3c(c2)O[C@H]2CNCC[C@@H]32)c1F` (single isomer, unassigned; enantiomer 2), for which the Ki in data set [6] is 21 nM.

With `O=S(=O)(c1ccccc1)c1cnc2c(N3CCNCC3)cccc2c1` [INTEPIRDINE], the Kp in data set [25] is 0.7. Further, the Vd in data set [26] amounted to 5.7 L/kg. In addition, the bioavailability in data set [27] was 24%. The t1/2 in data set [28] was determined as 42 min.

The term half-life denotes how long it takes for the measured level to halve. Higher therefore signals slow decline. As usually defined, the bioavailability is dose-corrected exposure relative to a reference, in per cent. One may read the Ki as a measure of affinity in units of concentration, obtained from inhibition or displacement. The term IC50 denotes the point on the concentration scale where inhibition reaches its midpoint. One may read the AUC as concentration integrated over time. A low value points to less exposure. By inhibition is commonly meant the share of the control response that was lost under treatment. The term Vd denotes the apparent volume that relates the amount in the body to the concentration in plasma or blood. A higher Vd goes with wide distribution into tissue.

The values above are taken from ChEMBL document CHEMBL1949541, “Discovery of 7-arylsulfonyl-1,2,3,4, 4a,9a-hexahydro-benzo[4,5]furo[2,3-c]pyridines: identification of a potent and selective 5-HT₆ receptor antagonist showing activity in rat social recognition test” (Bioorg Med Chem Lett, 2012).
